One may read the EC50 as the concentration needed to bring the measured effect to its halfway point. The term Ki denotes a dissociation constant, usually derived from enzyme kinetics or from competition with a known ligand.

Among the data in US9617310B2 (priority 2013, dated 2017) are EC50 and Ki values, retold here.

The test system of test [1] is genotype 4a stable HCV replicon (ED43) in Huh-7-derived cells. The test can be described thus: Stable subgenomic HCV replicon, genotype 4a, Renilla luciferase. To be noted: Hepatitis C virus, 72 h, read-out: EC50 4A RLUC. Format: cell-based. The method, then: (§1) Antiviral potency (EC50) was determined in both stable subgenomic HCV replicon cell lines and transient-transfected HCV replicon cells. The term half maximal effective concentration (EC50) refers to the concentration of a drug which induces a response halfway between the baseline and maximum after the exposure time specified below.
(§2) Stable subgenomic HCV replicons for genotype 1a, 1b, 2a, 3a, and 4a were established in Huh-7-derived cells as described by Lohmann et al (Lohmann V, Korner F, Koch J, et al Replication of subgenomic hepatitis C virus RNAs in a hepatoma cell line. Science 1999; 285:119-3). Each stable cell line contains a bicistronic HCV replicon that encodes a humanized Renilla luciferase (hRLuc) reporter gene fused to a selectable neomycin-resistance gene, followed by an EMCV IRES and the NS3-NS5B coding region of HCV. […] Luciferase activity was measured as a marker for intracellular HCV replication levels.
(§3) The genotype 1a stable replicon was derived from the H77 HCV strain and contained adaptive mutations P1496L and S2204I. The genotype 1b stable replicon was derived from the Con1 HCV strain and contained adaptive mutations E1202G, T1280I, and K1846T. […] The genotype 3a stable replicon was derived from the S52 HCV strain and contained adaptive mutations P1121 L, A1198T and S2210I (equivalent to S2204I in genotype 1). The genotype 4a stable replicon was derived from the ED43 HCV strain and contained adaptive mutations Q1691R and S2204I. All replicon cell lines were propagated in Huh-7-derived cells and maintained in Dulbecco's modified Eagle's Medium (DMEM) supplemented with 10% fetal bovine serum (FBS) and 0.5 mg/ml G418.
(§4) To perform EC50 assays, cells from each HCV replicon were dispensed into 384-well plates. Compounds were dissolved in DMSO at a concentration of 10 mM and diluted in DMSO using an automated pipetting instrument. Three-fold serially diluted compounds were directly added to the cells using an automated instrument. DMSO was used as a negative (solvent; no inhibition) control, and a combination of three HCV inhibitors including a protease inhibitor; an NS5A inhibitor and a nucleoside inhibitor was used at concentrations >100×EC50 as a positive control (100% inhibition). Seventy-two hours later, cells were lysed and Renilla luciferase activity were quantified as recommended by the manufacturer (Promega-Madison, Wis.). Non-linear regression was performed to calculate […], values.

Test [2] has as its system NS3/4a protease inhibitor resistant variant R155K in genotype 1a transient HCV replicon. The test can be described thus: Transient-transfected HCV replicon, genotype 1a R155K. Format: cell-based. To be noted: Hepatitis C virus, 72 h, read-out: EC50 1A R155K. In general terms: In antiviral work, replicon cells carry a viral genome segment that copies itself.
The test system of test [3] is genotype 3a transient HCV replicon (S52) in Huh-7-derived cells. The test can be described thus: Transient-transfected HCV replicon, genotype 3a wild type. The format is cell-based. To be noted: Hepatitis C virus; transient-transfected replicon genotype 3a wild type, 72 h; read-out: EC50 3A WT.
Test [4] relates to genotype 1b wild-type transient HCV replicon in Huh-7-derived cells. The test can be described thus: Transient-transfected HCV replicon, genotype 1b wild type. The format is cell-based. To be noted: Hepatitis C virus; transient-transfected replicon genotype 1b wild type, 72 h; read-out: EC50 1B WT.
In the next test the target is T1, NS3 genotype 1b protease (Hepatitis C virus genotype 1b, UniProt Q9WMX2, E1202G).
T1 construct: Purified NS3 protease domain (amino acids 1-181) of the genotype 1b and 3a virus were generated as above; K3 hexahistidine tag (N); rTEV protease cleavage site (N); made in house; host or cells: E. coli BL21AI
The test can be described thus: Ki determination, NS3 protease genotype 1b (fluorogenic depsipeptide substrate). Format: biochemical. The note with it: NS3 protease domain genotype 1b, NS4A peptide. The text has this: Ki Determination for Genotypes 1b and 3a NS3 Protease.
Purified NS3 protease domain (amino acids 1-181) of the genotype 1b and 3a virus were generated as above. The internally quenched fluorogenic depsipeptide substrate Ac-DED(Edans)-EEAbuψ[COO]ASK(Dabcyl)-NH2 and a synthetic peptide containing the hydrophobic core residues of the NS4A protein cofactor ([…]; NS4A peptide) were obtained from Anaspec, Inc. (San Jose, Calif.). Other chemicals and biochemicals were of reagent grade or better and were purchased from standard suppliers.
Reactions were run at room temperature in buffer consisting of 50 mM HEPES, 40% glycerol, 0.05% Triton X-100, 10 mM DTT, and 10% DMSO. The final assay solutions contained 50 pM NS3 genotype 1b protease or 200 pM genotype 3a protease, 20 μM NS4A peptide, and 4 μM substrate (genotype 1b) or 2 μM substrate (genotype 3a). Inhibitor concentrations varied from 100 nM to 5 pM in 3-fold dilutions, and no-inhibitor controls were included.
Compound dilutions were made in DMSO at 20× final concentration. Reaction mixtures were prepared in 96-well assay plates. A solution of enzyme and NS4A peptide in assay buffer (25 μL volume with both reagents at 4× final concentration) was mixed with 45 μL assay buffer and 5 μL of either inhibitor or DMSO, and pre-incubated at room temperature for 1 hour. The reaction was started by addition of 25 μL substrate solution at 4× final concentration. Plates were mixed vigorously for 5-10 seconds and reactions were allowed to proceed for 90 minutes. Fluorescence was measured every 30 s between 90 and 120 minutes reaction time using a Tecan InfiniTe M1000 or PerkinElmer Envision multimode plate reader with an excitation wavelength of 340 nm and an emission wavelength of 490 nm.
Rates were calculated from the progress curves at steady state, in the time frame of 90-120 minutes after addition of substrate. To determine the Ki, rates were plotted as a function of inhibitor concentration, and the data were fit with equation 1 (Morrison, J. F., Biochimica et Biophysica Acta 1969, 185, 269-286) to calculate Ki^app using GraphPad Prism 5. Active fraction of enzyme was determined by active site titration with known potent inhibitors. Ki was calculated from Ki^app/(1+[[S]/Km]).

The subject of test [5] is genotype 1b stable HCV replicon (Con1) in Huh-7-derived cells. The test can be described thus: Stable subgenomic HCV replicon, genotype 1b, Renilla luciferase. Format: cell-based. The note with it: Hepatitis C virus, stable replicon genotype 1b, 72 h, read-out: EC50 1B RLUC. The procedure: as §1, §2, §3, §4
Test [6] has as its system genotype 1a stable HCV replicon (H77) in Huh-7-derived cells. The test can be described thus: Stable subgenomic HCV replicon, genotype 1a, Renilla luciferase. The format is cell-based. To be noted: Hepatitis C virus, stable replicon genotype 1a, 72 h, read-out: EC50 1A RLUC. The method, then: as §1, §2, §3, §4
In test [7] the test system is genotype 3a stable HCV replicon (S52) in Huh-7-derived cells. Kind of test: Stable subgenomic HCV replicon, genotype 3a, Renilla luciferase. The format is cell-based. The note with it: Hepatitis C virus, 72 h, read-out: EC50 3A RLUC. The method, then:
as §1, §2, §3, §4

T1 sequence (Q9WMX2 1027-1207 E1202G, other chains not shown): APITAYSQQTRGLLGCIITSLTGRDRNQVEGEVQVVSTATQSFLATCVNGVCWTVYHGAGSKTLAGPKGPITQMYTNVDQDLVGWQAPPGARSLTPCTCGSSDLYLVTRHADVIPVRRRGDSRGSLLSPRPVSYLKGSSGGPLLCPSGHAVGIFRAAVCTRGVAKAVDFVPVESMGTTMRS

Regarding `COc1ccc2nc3c(nc2c1)O[C@@H]1C[C@@H](C(=O)N[C@]2(C(=O)NS(=O)(=O)C4CC4)C[C@H]2C(F)F)N(C1)C(=O)[C@H](C(C)(C)C)NC(=O)O[C@@H]1C[C@@H]2C[C@@H]2[C@H]1CCCCC3(F)F` (racemic) [Example 9, (1aS,2aR,6S,9S,11R,23aR,23bS)-6-tert-butyl-N-[(1R,2R)-1-[(cyclopropylsulfonyl)carbamoyl]-2-(difluoromethyl)cyclopropyl]-19,19-difluoro-15-methoxy-4,7-dioxo-1a,2,2a,4,5,6,7,10,11,19,20,21,22,23,23a,23b-hexadecahydro-1H,9H-8,11-methanocyclopropa[4′,5′]cyclopenta[1′,2′:18,19][1,10,3,6]dioxadiazacyclononadecino[11,12-b]quinoxaline-9-carboxamide], the concentration for a half-maximal effect (EC50) worked out at 1.4 nM in test [1]; 1.1 nM in test [2]; 2.5 nM in test [3]; 0.71 nM in test [4]; 1.5 nM in test [5]; 1.7 nM in test [6]. For the same molecule, the concentration giving a half-maximal response (EC50) in test [7] was 6.6 nM. Also, the affinity at NS3 genotype 1b protease, expressed as Ki, was 0.02 nM.

For the molecule `CC(C)(C)[C@@H]1NC(=O)O[C@@H]2C[C@@H]3C[C@@H]3[C@H]2CCCCC(F)(F)c2nc3cc(F)c(F)cc3nc2O[C@@H]2C[C@@H](C(=O)N[C@]3(C(=O)NS(=O)(=O)C4CC4)C[C@H]3C(F)F)N(C2)C1=O` (racemic) [Example 15, (1aS,2aR,6S,9S,11R,23aR,23bS)-6-tert-butyl-N-[(1R,2R)-1-[(cyclopropylsulfonyl)carbamoyl]-2-(difluoromethyl)cyclopropyl]-15,16,19,19-tetrafluoro-4,7-dioxo-1a,2,2a,4,5,6,7,10,11,19,20,21,22,23,23a,23b-hexadecahydro-1H,9H-8,11-methanocyclopropa[4′,5′]cyclopenta[1′,2′:18,19][1,10,3,6]dioxadiazacyclononadecino[11,12-b]quinoxaline-9-carboxamide], the EC50 was 2.6 nM in test [1]; 1.2 nM in test [2]; 11 nM in test [3]; 1.3 nM in test [4]; 3.4 nM in test [5]; 3.5 nM in test [6]. In test [7], the EC50 was 30 nM. Besides, at NS3 genotype 1b protease, the affinity corresponds to a Ki of 0.03 nM.

`COc1ccc2nc3c(nc2c1)O[C@@H]1C[C@@H](C(=O)N[C@]2(C(=O)NS(=O)(=O)C4CC4)C[C@H]2C(F)F)N(C1)C(=O)[C@H](C(C)(C)C)NC(=O)O[C@@H]1C[C@@H]2C[C@@H]2[C@H]1CCCCC3` [Example 1, (1aS,2aR,6S,9S,11R,23aR,23bS)-6-tert-butyl-N-[(1R,2R)-1-[(cyclopropylsulfonyl)carbamoyl]-2-(difluoromethyl)cyclopropyl]-15-methoxy-4,7-dioxo-1a,2,2a,4,5,6,7,10,11,19,20,21,22,23,23a,23b-hexadecahydro-1H,9H-8,11-methanocyclopropa[4′,5′]cyclopenta[1′,2′:18,19][1,10,3,6]dioxadiazacyclononadecino[11,12-b]quinoxaline-9-carboxamide]: the half-maximal effective concentration (EC50) in test [1] turned out to be 1 nM; in test [2], 1.5 nM; in test [3] it was 7.1 nM; in test [4], 0.61 nM; in test [5] it was 0.99 nM; in test [6], 1.1 nM. In test [7], the EC50 stood at 23 nM. Further, the Ki at NS3 genotype 1b protease stood at 0.02 nM.

Regarding `COc1ccc2nc3c(nc2c1)O[C@@H]1C[C@@H](C(=O)N[C@]2(C(=O)NS(=O)(=O)C4(C)CC4)C[C@H]2C(F)F)N(C1)C(=O)[C@H](C(C)(C)C)NC(=O)O[C@@H]1C[C@@H]2C[C@@H]2[C@H]1CCCCC3` [Example 2, (1aS,2aR,6S,9S,11R,23aR,23bS)-6-tert-butyl-N-[(1R,2R)-2-(difluoromethyl)-1-{[(1-methylcyclopropyl)sulfonyl]carbamoyl}cyclopropyl]-15-methoxy-4,7-dioxo-1a,2,2a,4,5,6,7,10,11,19,20,21,22,23,23a,23b-hexadecahydro-1H,9H-8,11-methanocyclopropa[4′,5′]cyclopenta[1′,2′18,19][1,10,3,6]dioxadiazacyclononadecino[11,12-b]quinoxaline-9-carboxamide], the 50% effective concentration (EC50) amounted to 1.2 nM in test [1]; 1.4 nM in test [2]; 5.1 nM in test [3]; 0.74 nM in test [4]; 1 nM in test [5]; 1.1 nM in test [6]. For the same molecule, in test [7], the concentration giving a half-maximal response (EC50) was found to be 17 nM. Also, the Ki on NS3 genotype 1b protease turned out to be 0.02 nM.

`COc1ccc2nc3c(nc2c1)O[C@@H]1C[C@@H](C(=O)N[C@]2(C(=O)NS(=O)(=O)C4CC4)C[C@H]2CC(F)F)N(C1)C(=O)[C@H](C(C)(C)C)NC(=O)O[C@@H]1C[C@@H]2C[C@@H]2[C@H]1CCCCC3` [Example 3, (1aS,2aR,6S,9S,11R,23aR,23bS)-6-tert-butyl-N-[(1R,2S)-1-[(cyclopropylsulfonyl)carbamoyl]-2-(2,2-difluoroethyl)cyclopropyl]-15-methoxy-4,7-dioxo-1a,2,2a,4,5,6,7,10,11,19,20,21,22,23,23a,23b-hexadecahydro-1H,9H-8,11-methanocyclopropa[4′,5′]cyclopenta[1′,2′:18,19][1,10,3,6]dioxadiazacyclononadecino[11,12-b]quinoxaline-9-carboxamide]: the 50% effective concentration (EC50) in test [1] is 3.4 nM; in test [2] it was 11 nM; in test [3], 67 nM; in test [4], 2.9 nM; in test [5], 3.2 nM; in test [6] it was 3.8 nM. Also, the EC50 in test [7] is 194 nM. This molecule also had a Ki at NS3 genotype 1b protease of 0.03 nM.
